# Source: article PMC7180617, “Biological Evaluation of 3-Benzylidenechromanones and Their Spiropyrazolines-Based Analogues” (Molecules, 2020)
# “And” between values parts separate entries of the source, which are not always exact repeats. Equal entries are not always repeated. Where two headings read alike, the source gives them in different places.
# Tests used:
# [1] = Lipophilicity (logP) by RP-TLC; details: RP-18 F254S TLC plates
# From the text: Lipophilicity is one of the most important physicochemical properties in pharmaceutical research. It can be considered a key determinant of the pharmacokinetic properties of a drug. It is commonly measured by the partition coefficient between water and n-octanol, being expressed as logP [14]. […] Knowledge of the partition coefficient is valuable: it is frequently used in structure–activity relationship (SAR) and quantitative structure–activity relationship (QSAR) studies. The experimental lipophilicity of the synthesized compounds, viz. benzylideneflavanones, benzylidenechromanones and spiropyrazolines, was determined using RP-TLC. […] It is important to examine the relationship between structure of the compound and its lipophilicity and cytotoxicity.
# The RP-TLC experiments were performed on TLC plates (5 × 10 cm) RP-18 F254S (Merck, Darmstadt, Germany). The synthesized compounds were dissolved in N,N-dimethylformamide DMF (2 mg/mL). […] A DMF-water solvent system was used as mobile phase. […] All experiments were performed at room temperature. The logP parameter was calculated using the equation from the calibration curve.
# WM-115 cells [2] = test: MTT cytotoxicity assay, WM-115; format: cell-based, human; details: Homo sapiens, WM-115, 48 h, MTT, 46 h + 2 h incubation
# Description: (§1) The first stage of the study used the MTT viability test to determine the cytotoxicity of ten compounds, i.e., 3-arylidenechromanone, 3-arylideneflavanone, spirochromanone and spiro- flavanone analogues, against four human cancer cell lines: HL-60, NALM-6, WM-115 and COLO-205.
# (§2) Cytotoxicity was tested against human skin melanoma cells (WM-115, ECACC, Salisbury, UK), two human leukemia cell lines, viz. promyelocytic leukemia (HL-60) and lymphoblastic leukemia (NALM-6), and human colon adenocarcinoma cells (COLO-205). The cell lines COLO-205, WM-115 and HL-60 used in this work came from the ATCC American Type Culture Collection (Manassas, VA, USA), whereas the NALM-6 cell line was purchased from the German Collection of Microorganisms and Cell Cultures (Braunschweig, Germany). The leukaemia cells and colon adenocarcinoma were cultured in RPMI 1640 medium (Invitrogen, Grand Island, NY, USA) supplemented with 10% fetal bovine serum (FBS; Invitrogen) and gentamicin (25 µg/mL; KRKA, Novo Mesto, Slovenia). For melanoma WM-115 cells, Dulbecco’s minimal essential medium (DMEM; Invitrogen) was used. All cell lines were cultured at 37 °C in a humidified atmosphere of 5% CO2 in air.
# (§3) For all experiments, the studied compounds were dissolved in DMSO (Sigma-Aldrich) and were further diluted in culture medium to obtain <0.1% DMSO concentration. In each experiment, controls with and without 0.1% DMSO were performed. The cytotoxicity of all compounds and of the reference compounds 4-chromanone and 3-benzylideneflavanone was determined by the MTT assay, i.e., 3-(4,5-dimethylthiazol-2-yl)-2,5-diphenyltetrazolium bromide (Sigma, St. Louis, MO, USA), which measures cellular dehydrogenase activity. Exponentially growing cells were seeded a day before the experiment onto a 96-well microplates (Nunc, Roskilde, Denmark) at a density up to 6–8 × 10^3 cells/well (depending on the cell line). Subsequently, various concentrations of the studied compounds freshly prepared in DMSO and diluted with complete culture medium were added. All compounds were tested for their cytotoxicity at a final concentration of 10^−7–10^−3 M. After 46 h of incubation with the studied compounds, the cells were treated with the MTT reagent and incubation was continued for another two hours. MTT – formazan crystals were dissolved in 20% sodium dodecyl sulphate (SDS, Sigma-Aldrich) and 50% DMF (Sigma-Aldrich) at pH 4.7; following this, absorbance was read at 570 nm on a multifunctional Victor ELISA-plate reader (Perkin Elmer, Turku, Finland). The IC50 values, i.e., the concentration of the test compound required to reduce the cell survival fraction to 50% of controls, were calculated from concentration-response curves and used as a measure of the sensitivity of the cells to a given treatment. As a control, cultured cells were grown in the absence of drugs. The data points represent the means of at least five to ten repeats ± standard deviation (S.D.).
# HL-60 cells [3] = test: MTT cytotoxicity assay, HL-60; format: cell-based, human; details: for IC50: Homo sapiens, HL-60, 48 h, MTT, 46 h + 2 h incubation
# Description: as §1, §2, §3
# [4] = test system: red blood cells (RBC membrane integrity); test: Red blood cell lysis assay; format: cell-based; details: 2% RBC suspension, 37 °C, 1 h
# From the text: (§4) All synthesized compounds with potential biological activity have to be tested for blood compatibility since xenobiotics will react with blood cells upon administration. In this case, biocompatibility refers to the quantification of cellular and plasma components of the blood. The measurement of the integrity of RBC membrane is considered a simple and reliable method for estimating hemocompatibility.
# (§5) The studies on biological material were approved by the Bioethics Committee of the Medical University of Lodz, Poland (RNN/109/16/KE). The blood samples were obtained from healthy donors at the Blood Donation Centre in Lodz. The procedure for plasma preparation for erythrotoxicity studies was described previously. The influence of synthesized compounds as well as two reference compounds flavanone and chromanone on RBC membrane integrity was performed by lysis assay which was conducted according to our previous protocol. Briefly, 2% RBC suspension in 0.9% NaCl was incubated at 37 °C for one hour with the tested compounds at various concentrations corresponding to their activity towards cancer cell lines or 0.9% NaCl (control). The samples were centrifuged at 3000 rpm for 10 min and the absorbance of the supernatant was measured at 550 nm. The results are presented as percentage of haemolysis where a sample containing 10 μL of 2.0% v/v Triton X-100 was regarded as a positive control contributing to 100% of haemolysis. A sample containing saline solution represented spontaneous haemolysis of RBCs (control). The studies were performed on four biological samples obtained from different blood donors (n = 4). The results are presented as mean ± standard deviation (SD). The coefficient of variability for the method was counted: W = 9.51%, n = 5.
# COLO-205 cells = test: MTT cytotoxicity assay, COLO-205; format: cell-based, human; details: Homo sapiens, COLO 205, 48 h, 46 h + 2 h incubation
# Description: as §1, §2, §3
# NALM-6 cells [5] = test: MTT cytotoxicity assay, NALM-6; format: cell-based, human; details: Homo sapiens, NALM-6, 48 h, MTT, 46 h + 2 h incubation
# Description: as §1, §2, §3
# HL-60 cells [6] = test system: HL-60 cells; set-up: method as in PMID 30513785; details: MTT; cited from earlier work
# WM-115 cells [7] = test system: WM-115 cells; set-up: method as in PMID 30513785; details: MTT; cited from earlier work
# NALM-6 cells [8] = test system: NALM-6 cells; set-up: method as in PMID 30513785; details: MTT; cited from earlier work
# HL-60 cells [9] = test: Cell cycle analysis by flow cytometry (propidium iodide); format: cell-based, human; details: for cell cycle, G1, mean / cell cycle, G2/M, mean / cell cycle, S, mean: mean of n=2; for cell cycle distribution, G1 / cell cycle distribution, G2 / cell cycle distribution, G2/M: HL-60, 20 h, mean ± SD, n = 2
# Description: The next stage examined the effects of the selected compounds on cell cycle progression in HL-60 leukemia cells. […] One million HL-60 (subline CCL 240; cell type: promyeloblast) cells in 3 mL of RPMI 1640 supplemented with 20% FBS were seeded on 6-well plate. […] Fixed cells were stored in −20 °C for 2–3 days. Before analysis, cells were centrifuged (10 min, 1500 rpm, 4 °C) and washed twice with cold PBS. After the second wash, the cells were suspended in 1mL of PBS containing 100 μg of RNase A and incubated in 37 °C for 10 min. Next, 5 μL of solution of propidium iodide (1 mg/mL) was added to each sample and incubated in dark for 30 min at RT. Stained cells were analyzed by flow cytometry (FACS Calibur, BD Biosciences, San Jose, CA, USA). Data from 10,000 gated cells were collected using CellQuestPro software (Ver 6.0, Becton Dickinson) and cell cycle analysis was performed with ModFit LT software (Ver 3.2, Verity Software House, Topsham, ME, USA).
# erythrocytes = test: Red blood cell morphology (phase-contrast microscopy); format: cell-based; details: 2% erythrocyte suspension, 37 °C, 1 h, phase contrast 400×
# Description: Studies on erythrocyte morphology complement the erythrotoxicity studies because they provide information on potential immediate interactions of the tested compounds with the erythrocyte lipid bilayer, and the possibility of creating pathological forms of erythrocytes, which are not able to carry oxygen. The effects of the synthesized compounds, and the two reference compounds chromanone and flavanone, on the morphology of erythrocytes is shown in Figure 6. Briefly, 2% RBC suspension was incubated with 0.9% NaCl (control samples) or tested compounds at various concentrations corresponding to their activity towards cancer cell lines.
# A 2% erythrocyte suspension was incubated at 37 °C for one hour with various concentrations of synthesized compounds. The morphology of the RBCs was examined by means of a phase contrast Opta-Tech inverted microscope, at 400× magnification, equipped with software (OptaView 7) for image analysis.
# [10] = Red blood cell lysis assay; format: cell-based; details: human, 2% red blood cell suspension, 2% RBC suspension, 37 °C, Triton X-100 = 100%, read-out: percentage of hemolysis
# From the text: as §4, §5
# [11] = Figure S3, HL-60, 0.5 × IC50 (µM: quercetin 29, 1 1.5, 7 18, 10 4.7, 11 4.5, 12 6)
# [12] = Figure S3, HL-60, 0.5 × IC50, each of two repetitions
# [13] = Figure S3, HL-60, 1 × IC50 (µM: quercetin 58, 1 3, 7 35, 10 9.4, 11 9, 12 12)
# [14] = Figure S3, HL-60, 1 × IC50, each of two repetitions
# [15] = 0.5 × IC50 (µM: quercetin 29, 2 1.5, 7 18, 12 6, 11 4.5, 10 4.7)
# [16] = 1 × IC50 (µM: quercetin 58, 2 3, 7 35, 12 12, 11 9, 10 9.4)
structure (smiles),measurement,setting,value
"O=C1c2ccccc2OCC12N=NCC2c1ccccc1 (stereo not shown) [Compound 8, 4′-phenyl-4′,5′-dihydro-4H-spiro[chromano-3,3′-pirazol]-4-one]",melting point,,141 to 142 °C
same,chromatographic logP,[1],2.35
same,IC50,WM-115 cells [2],415 ± 75.4 µM
same,IC50,HL-60 cells [3],474 ± 29 µM
same,effect on RBC hemolysis / erythrocyte membrane integrity (in words),[4],significantly greater disintegration of RBC membrane was reported at concentrations of 250 µM and 500 µM
same,IC50,COLO-205 cells,> 1000 µM
same,IC50,NALM-6 cells [5],282 ± 49.4 µM
"CCN(CC)c1ccc(C=C2C(=O)c3ccccc3OC2c2ccccc2)cc1 (stereo not shown) [Compound 11, (E)-3-(4-N,N-diethylaminobenzylidene)-2-phenylchroman-4-one]",IC50,HL-60 cells [6],8.36 ± 0.63 µM
same,IC50,WM-115 cells [7],6.45 ± 0.69 µM
same,IC50,NALM-6 cells [8],9.08 ± 0.3 µM
same,chromatographic logP,[1],5.69
same,"cell cycle, G1, mean",HL-60 cells [9]; [11],"5,95%"
same,"cell cycle, G2/M, mean",HL-60 cells [9]; [11],"59,23%"
same,"cell cycle, S, mean",HL-60 cells [9]; [11],"34,83%"
same,"cell cycle, G1, single repetitions",HL-60 cells [9]; [12],"3,45% and 8,45%"
same,"cell cycle, G2/M, single repetitions",HL-60 cells [9]; [12],"64,13% and 54,32%"
same,"cell cycle, S, single repetitions",HL-60 cells [9]; [12],"27,42% and 42,23%"
same,"cell cycle, G1, mean","HL-60 cells [9]; Figure S3, HL-60, 1 × IC50 (µM in parenthesis: quercetin 58, 1 3, 7 35, 10 9.4, 11 9, 12 12)","3,17%"
same,"cell cycle, G2/M, mean",HL-60 cells [9]; [13],"67,76%"
same,"cell cycle, S, mean",HL-60 cells [9]; [13],"29,08%"
same,"cell cycle, G1, single repetitions",HL-60 cells [9]; [14],"5,16% and 1,17%"
same,"cell cycle, G2/M, single repetitions",HL-60 cells [9]; [14],"67,98% and 67,53%"
same,"cell cycle, S, single repetitions",HL-60 cells [9]; [14],"26,86% and 31,30%"
same,"cell cycle distribution, G1",HL-60 cells [9]; [15],3.2 ± 2.8%
same,"cell cycle distribution, G2",HL-60 cells [9]; [15],29.1 ± 3.1%
same,"cell cycle distribution, G2/M",HL-60 cells [9]; [15],67.8 ± 0.3%
same,"cell cycle distribution, G1",HL-60 cells [9]; [16],6 ± 3.5%
same,"cell cycle distribution, G2",HL-60 cells [9]; [16],34.8 ± 10.5%
same,"cell cycle distribution, G2/M",HL-60 cells [9]; [16],59.2 ± 6.9%
same,cells arrested in G2/M phase,"HL-60 cells [9]; HL-60, concentrations of IC50 and 0.5 × IC50",50–60%
"O=C1c2ccccc2OC(c2ccccc2)C12N=NCC2c1ccccc1 (stereo not shown) [Compound 6, 2′-phenylchromanone-3′-spiro-3,4-phenyl-1-pyrazoline]",erythrocyte morphology (in words),erythrocytes,echinocytes accounted for the major part of erythrocytes
same,melting point,,126.5 to 127 °C
same,chromatographic logP,[1],5.88
same,IC50,WM-115 cells [2],57.4 ± 5.8 µM
same,fold lower cytotoxicity against HL-60 than compound 2,"HL-60 cells [3]; HL-60, compared with compound 2",more than 330 fold
same,IC50,HL-60 cells [3],> 1000 µM
same,IC50,COLO-205 cells,53.6 ± 1.6 µM
same,IC50,NALM-6 cells [5],44.4 ± 6.3 µM
"COc1ccc(/C=C2\COc3ccccc3C2=O)cc1 [Compound 3, (E)-3-(4-methoxybenzylidene)chroman-4-one]",erythrocyte morphology (in words),erythrocytes,echinocytes accounted for the major part of erythrocytes
same,chromatographic logP,[1],4.08
same,IC50,WM-115 cells [2],23.5 ± 1.71 µM
same,IC50,HL-60 cells [3],45.4 ± 4.77 µM
same,hemolysis at 1 h,[10],≤ 5%
same,effect on RBC hemolysis / erythrocyte membrane integrity (in words),[4],significant disintegration of the erythrocyte membrane at concentrations above 25 µM
same,IC50,COLO-205 cells,193 ± 2.9 µM
same,IC50,NALM-6 cells [5],30.1 ± 3.15 µM
"COc1ccc(C2CN=NC23COc2ccccc2C3=O)cc1 (stereo not shown) [Compound 4, 4′-[(4-methoxy)phenyl]-4′,5′-dihydro-4H-spiro[chroman-3,3′-pirazol]-4-one]",erythrocyte morphology (in words),erythrocytes,echinocytes accounted for the major part of erythrocytes
same,melting point,,109 to 111.3 °C
same,chromatographic logP,[1],4.68
same,IC50,WM-115 cells [2],75.3 ± 4.89 µM
same,IC50,HL-60 cells [3],74 ± 1.85 µM
same,hemolysis at 1 h,[10],≤ 5%
same,effect on RBC hemolysis / erythrocyte membrane integrity (in words),[4],significant disintegration of the erythrocyte membrane at concentrations above 25 µM
same,IC50,COLO-205 cells,26.5 ± 1.8 µM
same,IC50,NALM-6 cells [5],72.6 ± 4.56 µM
